Results published in US9695118B2, “Benzamide derivative” (Chugai Seiyaku Kabushiki Kaisha, priority 2012, dated 2017).

Key:
[1] = system: human endometrial cancer cell line MFE-280; experiment: Antitumor effect in cancer-bearing mice with subcutaneously transplanted MFE-280; assay type: in vivo; conditions: Dose 200 mg/kg, orally once daily; MFE-280 in BALB/c nude mice; 11th day after start of administration
Procedure: 3. Measurement of Antitumor Effect
The antitumor effect was measured for representative examples of the compounds of the present invention.
The antitumor effect was measured using cancer-bearing mice in which the human endometrial cancer cell line MFE-280 (manufactured by DSMZ) was subcutaneously transplanted to the flank of BALB/c nude mice (manufactured by Charles River Laboratories Japan, Inc.).
About 1×10^7 MFE-280 cells were subcutaneously transplanted to the flank of the purchased nude mice after a one-week quarantine period. The tumor size was measured with calipers, and the tumor volume was calculated (tumor volume=length×breadth^2/2 (mm^3)). The mice were subjected to the experiment when the tumor volume was about 200 mm^3.
The test compound was suspended in the administration solution, and 0.4 mL of the suspension was orally administered once daily. The antitumor effect was calculated as inhibition of tumor growth by comparing the tumor growth between the drug-treated group and the administration solution-administered control group on the 11th day after the start of administration.
Tumor volume growth inhibition (TGI)=(1−tumor volume growth in drug-treated group/tumor volume growth in control group)×100(%)

DDR1 = DDR1 (Homo sapiens (Human), UniProt Q08345); experiment: biochemical
Chain of DDR1 (Q08345 19-913): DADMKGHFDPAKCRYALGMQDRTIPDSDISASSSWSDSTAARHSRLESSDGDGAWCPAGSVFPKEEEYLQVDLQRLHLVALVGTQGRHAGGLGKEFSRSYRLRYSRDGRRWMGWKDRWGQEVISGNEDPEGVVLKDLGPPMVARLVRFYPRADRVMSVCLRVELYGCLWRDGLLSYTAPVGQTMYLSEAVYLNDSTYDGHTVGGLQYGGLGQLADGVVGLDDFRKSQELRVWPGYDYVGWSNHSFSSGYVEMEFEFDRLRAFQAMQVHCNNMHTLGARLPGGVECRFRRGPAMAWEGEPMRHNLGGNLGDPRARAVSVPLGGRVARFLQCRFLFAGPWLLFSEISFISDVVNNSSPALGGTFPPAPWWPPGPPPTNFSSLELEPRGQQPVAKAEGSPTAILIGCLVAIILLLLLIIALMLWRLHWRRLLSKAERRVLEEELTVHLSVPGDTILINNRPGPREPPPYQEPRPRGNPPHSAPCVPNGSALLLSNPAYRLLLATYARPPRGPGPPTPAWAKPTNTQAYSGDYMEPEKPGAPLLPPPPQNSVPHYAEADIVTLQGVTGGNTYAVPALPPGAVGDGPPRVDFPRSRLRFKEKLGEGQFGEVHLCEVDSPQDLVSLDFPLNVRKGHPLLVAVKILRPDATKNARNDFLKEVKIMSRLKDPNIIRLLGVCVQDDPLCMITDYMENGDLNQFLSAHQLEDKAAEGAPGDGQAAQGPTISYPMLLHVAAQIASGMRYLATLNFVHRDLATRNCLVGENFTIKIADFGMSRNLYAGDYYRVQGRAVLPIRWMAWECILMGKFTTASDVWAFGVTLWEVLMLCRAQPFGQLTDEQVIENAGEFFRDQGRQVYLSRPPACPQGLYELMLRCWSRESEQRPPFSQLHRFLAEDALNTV
Procedure: Measurement of DDR1 Binding Activity
DDR1 binding activity was measured by the LanthaScreen (Registered trademark) Eu Kinase Binding Assay (manufactured by Life Technologies Corporation). […] After reacting at room temperature for one hour, the fluorescence resonance energy transfer was measured.

IC50 (DDR1) [nM]	SMILES	Antitumor effect TGI after 11 days passed (%) [1] [%]
	CCS(=O)(=O)c1ccc(Cl)cc1CNC(=O)c1ccc(CN2CCN(C)CC2)c(C(F)(F)F)c1 [Compound B-2, N-(5-Chloro-2-ethanesulfonyl-benzyl)-4-(4-methyl-piperazin-1-ylmethyl)-3-trifluoromethyl-benzamide]	61
800	C#CCN(CC#C)[C@H]1CCCN(Cc2c(Cl)cc(C(=O)NCc3cc(Cl)ccc3S(=O)(=O)CC)cc2C(F)(F)F)C1 [DD-23, 4-[[(3S)-3-[Bis(prop-2-ynyl)amino]piperidin-1-yl]methyl]-3-chloro-N-[(5-chloro-2-ethylsulfonylphenyl)methyl]-5-(trifluoromethyl)benzamide]	
76	CCS(=O)(=O)c1ccc(Cl)cc1CNC(=O)c1cc(Cl)c(CN2CCC([N+](C)(C)[O-])CC2)c(C(F)(F)F)c1 [Compound N-24]	
50	CCS(=O)(=O)c1ccc(Cl)cc1CNC(=O)c1cc(Br)cc(OC(F)(F)F)c1 [Compound A-10, 3-bromo-N-(5-chloro-2-ethanesulfonyl-benzyl)-5-trifluoromethoxy-benzamide]	
